The numbers were not newly measured in US11826586B2, “Method for dyeing keratin material, comprising the use of an organic C1-C6-alkoxy-silane and an alkalising agent” (Henkel AG & Co. KGaA, priority 2019, dated 2023), which cites them from elsewhere.

The conditions of this data set: 25° C.

Regarding `CCN(Cc1cccc(S(=O)(=O)O)c1)c1ccc(C(=C2C=CC(=[N+](CC)Cc3cccc(S(=O)(=O)O)c3)C=C2)c2ccccc2S(=O)(=O)[O-])cc1` [Acid Blue 9], the solubility in water result is given as “more than 20 % by weight”. For `O=S(=O)(O)c1ccc(N=Nc2c(O)ccc3ccccc23)cc1` [Acid Orange 7, 4-[(2-hydroxy-1-naphthyl)azo]benzene sulphonate], the solubility in water entry is “more than 7 g/L”. Regarding `O=[N+]([O-])c1cc([N+](=O)[O-])c2ccc(S(=O)(=O)O)cc2c1O` [Acid Yellow 9, 8-hydroxy-5,7-dinitro-2-naphthalenesulfonic acid], the solubility in water entry is on record as “above 40 g/L”.

For `O=C(O)C1=NN(c2ccc(S(=O)(=O)O)cc2)C(=O)C1N=Nc1ccc(S(=O)(=O)O)cc1` (stereo not shown) [Acid Yellow 23, 4,5-dihydro-5-oxo-1-(4-sulfophenyl)-4-((4-sulfophenyl)azo)-1H-pyrazole-3-carboxylic acid], the “solubility in water (in words)” value is recorded as “highly soluble”.
